Results on 25 molecules are retold here after US20130225548A1, “Pyridine Derivative and Medicinal Agent” (NIPPON SHINYAKU CO., LTD., priority 2010, published 2013).

Molecules are shown by their SMILES. Where a name gives a salt, the structure may show the parent alone. Where only a bound is given, the exact number is not on record here.

The target in this assay is T1, Syk tyrosine kinase (Homo sapiens, UniProt P43405).
T1 construct: purchased Carna Biosciences, Inc
In words: Test for Syk tyrosine kinase inhibitory activity (ELISA). Format: biochemical. The following applies: Syk tyrosine kinase (Carna Biosciences), 25 μM ATP in substrate solution, 30° C. 1 hour, n=2; read-out: Evaluation (IC50, concentration inhibiting the tyrosine kinase activity at 50%). The procedure: Test Example 1: Test for Syk Tyrosine Kinase Inhibitory Activity
1. Preparation of Test Substance
A test substance was prepared at 10 mM in dimethyl sulfoxide (DMSO), and further diluted with DMSO to concentrations of 1000, 300, 100, 30, 10, 3, 1, 0.3, 0.1, 0.03, and 0.01 μM. The resulting solutions were further diluted to 20-fold with an assay buffer, whereby test substance solutions were prepared. As a negative control, a solution obtained by diluting DMSO to 20-fold with an assay buffer was used. As the assay buffer, a buffer containing 15 mM Tris-HCl (pH 7.5), 0.01 (v/v) % Tween-20, and 1 mM dithiothreitol was used.
2. Measurement of Syk Tyrosine Kinase Inhibitory Activity
The activity was measured using the ELISA method. Each of the test substance solutions was added to a streptavidine-coated 96-well place (DELFIA Strip Plate 8×12 wells, PerkinElmer Co., Ltd,) at 10 μL per well (n=2), and a substrate solution (625 nM biotinylated peptide substrate, 25 μM ATP, 25 mM MgCl2, 15 mM Tris-HCl (pH 7.5), 0.01 (v/v) % Tween-20, 1 mM dithiothreitol) was added to the plate at 20 μL per well, and the resulting mixture was stirred. Finally, Syk tyrosine kinase (Carna Biosciences, Inc.) (previously diluted to 0.025 nM with the assay buffer) was added to the plate at 20 μL per well, and the resulting mixture was stirred. A reaction was allowed to proceed at 30° C. for 1 hour. After the plate was washed 4 times with a washing buffer (50 mM Tris-HCl (pH 7.5, 150 mM NaCl, 0.02 (v/v) % Tween-20), a blocking buffer (0.1% bovine serum albumin, 50 mM Tris-HCl (pH 7.5), 150 mM NaCl, 0.02 (v/v) % Tween-20) was added to the plate at 150 μL per well, and blocking was performed at 30° C. for 30 minutes. Then, the blocking buffer was removed, and a horseradish peroxidase-labeled anti-phosphorylated tyrosine antibody (BD Biosciences, Inc.) (previously diluted to 10000-fold with the blocking buffer) was added to the plate at 100 μL per well, and the plate was incubated at 30° C. for 30 minutes. After the plate was washed 4 times with the washing buffer, a 3,3′,5,5′-tetramethylbenzidine solution (Sigma-Aldrich Co., Ltd.) was added to the plate at 100 μL per well to develop the color for 10 minutes. The reaction was stopped by adding 0.1 M sulfuric acid at 100 μL per well. The absorbance at 450 nm was measured using a microplate reader (Multiskan F C, Thermo Fisher Scientific K,K.).
3. Analysis of Measurement Results
A non-linear regression analysis was performed for the measured absorbance using the SAS system (SAS institute. Inc.), and a concentration of each of the test substances: inhibiting the tyrosine kinase activity at 50% (IC50 ) was calculated. A case where IC50 is […] was evaluated as ***, a case where IC50 is 5 nM or more and less than 50 nM was evaluated as **, and a case where IC50 is 50 nM or more and less than 500 nM was evaluated as *, which are shown in the column of evaluation item.
On the technique in general: ELISA stands for enzyme-linked immunosorbent assay.
For the molecule `N#Cc1ccnc(Nc2cc(C3CC3)cc(-c3ccc(NCCN)nc3)n2)c1` [Example 19, 2-({6′-[(2-aminoethyl)amino]-4-cyclopropyl-2,3′-bipyridin-6-yl}amino)pyridine-4-carbonitrile dihydrochloride], the IC50 was less than 5 nM. As for `N#Cc1ccnc(Nc2cc(C3CC3)cc(-c3ccc(N4CCC(O)CC4)nc3)n2)c1` [Example 20, 2-{[4-cyclopropyl-6′-(4-hydroxypiperidin-1-yl)-2,3′-bipyridin-6-yl]amino}pyridine-4-carbonitrile hydrochloride], the figure is 5 to 50 nM. As for `COCCNc1ccc(-c2cc(C3CC3)cc(Nc3cc(C#N)ccn3)n2)cn1` [Example 21, 2-({4-cyclopropyl-6′-[(2-methoxyethyl)amino]-2,3′-bipyridin-6-yl}amino)pyridine-4-carbonitrile hydrochloride], the figure is 5 to 50 nM; as for `N#Cc1ccnc(Nc2cc(C3CC3)cc(-c3ccc(N4CC[C@@H](O)C4)nc3)n2)c1` [Example 22, 2-({4-cyclopropyl-6′-[(3R)-3-hydroxypyrrolidin-1-yl]-2,3′-bipyridin-6-yl}amino)pyridine-4-carbonitrile hydrochloride], 5 to 50 nM.

Take `N#Cc1ccnc(Nc2cc(C3CC3)cc(-c3ccc(NCCCO)nc3)n2)c1` [Example 23, 2-({4-cyclopropyl-6′-[(3-hydroxypropyl)amino]-2,3′-bypyridin-6-yl}amino)pyridine-4-carbonitrile hydrochloride]: the IC50 was in the range of 5 to 50 nM. As to `CC(C)(CO)CNc1ccc(-c2cc(C3CC3)cc(Nc3cc(C#N)ccn3)n2)cn1` [Example 24, 2-({4-cyclopropyl-6′-[(3-hydroxy-2,2-dimethylpropyl)amino]-2,3′-bipyridin-6-yl}amino)pyridine-4-carbonitrile hydrochloride], the IC50 lay in the range of 5 to 50 nM.

Take `N#Cc1ccnc(Nc2cc(C3CC3)cc(-c3ccc(N4CC[C@H](O)C4)nc3)n2)c1` [Example 25, 2-({4-cyclopropyl-6′-[(3S)-3-hydroxypyrrolidin-1-yl]-2,3′-bipyridin-6-yl}amino)pyridine-4-carbonitrile hydrochloride]: the IC50 fell in the range of 5 to 50 nM. Under `N#Cc1ccnc(Nc2cc(C3CC3)cc(-c3ccc(N4CCC(CO)CC4)nc3)n2)c1` [Example 26, 2-({4-cyclopropyl-6′-[4-(hydroxymethyl)piperidin-1yl]-2,3′-bipyridin-6-yl}amino)pyridine-4-carbonitrile hydrochloride] stands 5 to 50 nM. Under `N#Cc1ccnc(Nc2cc(C3CC3)cc(-c3ccc(N4CCSCC4)nc3)n2)c1` [Example 27, 2-{[4-cyclopropyl-6′-(thiomorphoiln-4-yl)-2,3′-bipyridin-6-yl]amino}pyridine-4-carbonitrile hydrochloride] stands 5 to 50 nM.

As to `N#Cc1ccnc(Nc2cc(C3CC3)cc(-c3ccc(N4CCC(N)CC4)nc3)n2)c1` [Example 28, 2-{[6′-(4-aminopiperidin-1-yl)-4-cyclopropyl-2,3′-bipyridin-6-yl]amino}pyridine-4-carbonitrile dihydrochloride], the IC50 was 5 to 50 nM. As for `CNC1CCN(c2ccc(-c3cc(C4CC4)cc(Nc4cc(C#N)ccn4)n3)cn2)CC1` [Example 29, 2-({4-cyclopropyl-6′-[4-(methylamino)piperidin-1-yl]-2,3′-bipyridin-6-yl}amino)pyridine-4-carbonitrile dihydrochloride], the figure is 5 to 50 nM; as for `N#Cc1ccnc(Nc2cc(C3CC3)cc(-c3ccc(N4CCC(F)CC4)nc3)n2)c1` [Example 30, 2-{[4-cyclopropyl-6′-(4-fluoropiperidin-1-yl)-2,3′-bipyridin-6-yl]amino}pyridine-4-carbonitrile hydrochloride], 50 to 500 nM. Take `N#Cc1ccnc(Nc2cc(C3CC3)cc(-c3ccc(N(CCO)CCO)nc3)n2)c1` [Example 31, 2-({6′-[bis(2-hydroxyethyl)amino]-4-cyclopropyl-2,3′-bipyridin-6-yl}amino)pyridine-4-carbonitrile hydrochloride]: the IC50 lay within 5 to 50 nM. In the case of `N#Cc1ccnc(Nc2cc(C3CC3)cc(-c3ccc(N4CCCNCC4)nc3)n2)c1` [Example 32, 2-{[4-cyclopropyl-6′-(1,4-diazepan-1-yl)-2,3′-bipyridin-6-yl]amino}pyridine-4-carbonitrile dihydrochloride], the IC50 is 5 to 50 nM. As for `N#Cc1ccnc(Nc2cc(C3CC3)cc(-c3ccc(N4CCC[C@H](O)C4)nc3)n2)c1` [Example 33, 2-({4-cyclopropyl-6′-[(3S)-3-hydroxypiperidin-1-yl]-2,3′-bipyridin-6-yl}amino)pyridine-4-carbonitrile hydrochloride], the figure is 5 to 50 nM; as for `N#Cc1ccnc(Nc2cc(C3CC3)cc(-c3ccc(N4CCC[C@@H](O)C4)nc3)n2)c1` [Example 34, 2-({4-cyclopropyl-6′-[(3R)-3-hydroxypiperidin-1-yl]-2,3′-bipyridin-6-yl}amino)pyridine-4-carbonitrile hydrochloride], 5 to 50 nM; as for `N#Cc1ccnc(Nc2cc(C3CC3)cc(-c3cnc(N4CCC(O)CC4)nc3)n2)c1` [Example 35, 2-({4-cyclopropyl-6-[2-(4-hydroxypiperidin-1-yl)pyrimidin-5-yl]pyridin-2-yl}amino)pyridine-4-carbonitrile hydrochloride], 50 to 500 nM. Under `Cn1ncc2cc(-c3cc(C4CC4)cc(Nc4cc(C#N)ccn4)n3)ccc21` [Example 36, 2-{[4-cyclopropyl-6-(1-methyl-1H-indazol-5-yl)pyridin-2-yl]amino}pyridine-4-carbonitrile hydrochloride] stands 5 to 50 nM. Under `Cn1ncc2ccc(-c3cc(C4CC4)cc(Nc4cc(C#N)ccn4)n3)cc21` [Example 37, 2{[4-cyclopropyl-6-(1-methyl-1H-indazol-6-yl)pyridin-2-yl]amino}pyridine-4-carbonitrile hydrochloride] stands 5 to 50 nM; under `CN1CCCN(c2ccc(-c3cc(C4CC4)cc(Nc4cc(C#N)ccn4)n3)cn2)CC1` [Example 38, 2-{[4-cyclopropyl-6′-(4-methyl-1,4-diazepan-1-yl)-2,3′-bipyridin-6-yl]amino}pyridine-4-carbonitrile dihydrochloride], 5 to 50 nM. Consider `CNC(=O)C1CCCN1c1ccc(-c2cc(C3CC3)cc(Nc3cc(C#N)ccn3)n2)cn1` (stereo not shown) [Example 39, 1-{6-[(4-cyanopyridin-2-yl)amino]-4-cyclopropyl-2,3′-bipyridin-6′-yl}-N-methylpyrrolidine-2-carboxamide hydrochloride], for which the IC50 lay in the range of 50 to 500 nM. As for `N#Cc1ccnc(Nc2cc(C3CC3)cc(-c3ccc(N4CCC[C@H]4C(N)=O)nc3)n2)c1` [Example 40, (S)-1-{6-[(4-cyanopyridin-2-yl)amino]-4-cyclopropyl-2,3′-bipyridin-6′-yl}pyrrolidine-2-carboxamide hydrochloride], the figure is 50 to 500 nM; as for `N#Cc1ccnc(Nc2cc(C3CC3)cc(-c3ccc(N4CCC(O)CC4)cc3)n2)c1` [Example 41, 2-({4-cyclopropyl-6-[4-(4-hydroxypiperidin-1-yl)phenyl]pyridin-2-yl}amino)pyridine-4-carbonitrile hydrochloride], 50 to 500 nM; as for `CC(=O)N[C@H]1CCN(c2ccc(-c3cc(C4CC4)cc(Nc4cc(C#N)ccn4)n3)cn2)C1` [Example 42, N-[(3S)-1-{6-[(4-cyanopyridin-2-yl)amino]-4-cyclopropyl-2,3′-bipyridin-6′-yl}pyrrolidin-3-yl]acetamide hydrochloride], 50 to 500 nM. As for `CCNC(=O)N1CCN(c2ccc(-c3cc(C4CC4)cc(Nc4cc(C#N)ccn4)n3)cn2)CC1` [Example 43, 4-{6-[(4-cyanopyridin-2-yl)amino]-4-cyclopropyl-2,3′-bipyridin-6′-yl}-N-ethylpiperazine-1-carboxamide hydrochloride], the figure is 50 to 500 nM.
